Laboratory results taken from PubChem BioAssay (NCI).
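48-hour exposure; five concentrations; linearly interpolated endpoints. TGI marks complete inhibition of growth.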

How the values were obtained:
Test in all cases: DTP human tumour cell line panel, 48 h
SK-MEL-5 melanoma = test system: SK-MEL-5 melanoma
OVCAR-3 ovarian = test system: OVCAR-3 ovarian
TK-10 renal = test system: TK-10 renal
PC-3 prostate = test system: PC-3 prostate
SW-620 colon = test system: SW-620 colon
SNB-75 CNS = test system: SNB-75 CNS
RPMI-8226 leukemia = test system: RPMI-8226 leukemia
HOP-62 NSCLC = test system: HOP-62 NSCLC
HCT-116 colon = test system: HCT-116 colon
A549 NSCLC = test system: A549 NSCLC
DU-145 prostate = test system: DU-145 prostate
SF-268 CNS = test system: SF-268 CNS
HL-60(TB) leukemia = test system: HL-60(TB) leukemia
NCI-H522 lung = test system: NCI-H522 lung
SN12C renal = test system: SN12C renal
T-47D breast = test system: T-47D breast
UACC-62 melanoma = test system: UACC-62 melanoma
K-562 leukemia = test system: K-562 leukemia
U251 CNS = test system: U251 CNS
SNB-19 CNS = test system: SNB-19 CNS

| SMILES | TGI (SK-MEL-5 melanoma) [µM] | TGI (OVCAR-3 ovarian) [µM] | TGI (TK-10 renal) [µM] | TGI (PC-3 prostate) [µM] | TGI (SW-620 colon) [µM] | TGI (SNB-75 CNS) [µM] | TGI (RPMI-8226 leukemia) [µM] | TGI (HOP-62 NSCLC) [µM] | TGI (HCT-116 colon) [µM] | TGI (A549 NSCLC) [µM] | TGI (DU-145 prostate) [µM] | TGI (SF-268 CNS) [µM] | TGI (HL-60(TB) leukemia) [µM] | TGI (NCI-H522 lung) [µM] | TGI (SN12C renal) [µM] | TGI (T-47D breast) [µM] | TGI (UACC-62 melanoma) [µM] | TGI (K-562 leukemia) [µM] | TGI (U251 CNS) [µM] | TGI (SNB-19 CNS) [µM] |
| --- | --- | --- | --- | --- | --- | --- | --- | --- | --- | --- | --- | --- | --- | --- | --- | --- | --- | --- | --- | --- |
| c1cc2[nH]snc2c2cncc12 | > 100 | > 100 | > 100 | > 100 | > 100 | > 100 | > 100 | > 100 | > 100 | > 100 | > 100 | > 100 | > 100 | > 100 | > 100 | > 100 | > 100 | > 100 | – | – |
| Cc1cc(S(=O)(=O)Nc2nc3ccccc3[nH]2)c(S)cc1Cl | > 100 | > 100 | > 100 | > 100 | > 100 | > 100 | > 100 | > 100 | 76.5 | > 100 | > 100 | > 100 | > 100 | > 100 | > 100 | > 100 | > 100 | > 100 | 78.3 | > 100 |
| COC(=O)C1=C([C@H]2COC(C)(C)O2)[C@H]2C[C@@H]1[C@@H]1OC(C)(C)O[C@@H]12 | > 100 | > 100 | > 100 | > 100 | > 100 | > 100 | > 100 | > 100 | > 100 | > 100 | > 100 | > 100 | > 100 | > 100 | > 100 | > 100 | > 100 | > 100 | > 100 | > 100 |
| CC(=O)Nc1ccc(-c2nc3ccccc3s2)cc1Cl | > 100 | > 100 | 0.445 | > 100 | > 100 | > 100 | > 100 | > 100 | > 100 | > 100 | > 92.4 | > 100 | > 100 | > 100 | > 100 | > 100 | > 100 | > 100 | > 100 | > 100 |
| CCOC(=O)c1ccc(NC(=O)O/N=C(/Cl)C(C)C)cc1 | 30 | 11.5 | 33.5 | 34.9 | 4.32 | 27.4 | 24.8 | 32.2 | 22.4 | 47.7 | > 67.2 | 34.8 | 3.26 | 3.85 | 44 | 6.62 | 38.2 | 3.52 | 36.3 | > 59.1 |
| CC(C)(Cl)C(Br)CCC(CBr)=C(Cl)CCl (mixture of isomers) | 3.87 | > 5.48 | > 5.76 | 5.56 | 5.6 | 7.93 | 4.39 | > 6.85 | 3.63 | > 10 | > 10 | 5.67 | 2.95 | 3.22 | 0.971 | 5.33 | 3.71 | 3.75 | 3.16 | 9.73 |
| CCc1cccc(CC)c1Nc1nc2c(s1)C(=O)c1ccccc1C2=O | 47.9 | 34 | 36.6 | 30.2 | 74.6 | 25.4 | > 100 | 30.2 | 31.4 | > 100 | 45.3 | 41.7 | > 100 | 83.3 | 47.9 | > 100 | 32.3 | > 100 | 29.8 | 31.9 |
| CN(C)/N=C1\C=C2CC[C@H](O[Si](C)(C)C(C)(C)C)[C@@]2(C)CC1 | 24.9 | 27.9 | 34.6 | 28.1 | 31.9 | 30.9 | 22 | 32.6 | – | 34.8 | 33.2 | 39.6 | 26.5 | 26.3 | – | 29.6 | 30.4 | 35.9 | 29.7 | 31.9 |
| CC(=O)OCC1OC(O[C@@H]2C[C@H]3C(C)(C)[C@H](OC(C)=O)CC[C@]3(C)[C@H]3CC[C@]4(C)C(=CC[C@H]4[C@@H](C)C[C@@H](O)[C@H](O)C(C)(C)O)[C@@]32C)C(O)C(O)C1O (some centres undefined) | – | 28.7 | 32 | 30.8 | 32.8 | 36.5 | 30.2 | 29.3 | 27.5 | – | 32.1 | 29.3 | 33.3 | 5.07 | 31.7 | 32 | 30.5 | 37.7 | 25.3 | 29.3 |
| C=C1C(=O)CCC1C(=O)O (centres undefined) | > 100 | > 100 | > 100 | > 100 | > 100 | > 100 | > 100 | > 100 | > 100 | > 100 | > 100 | > 100 | > 100 | > 100 | > 100 | > 100 | > 100 | > 100 | > 100 | > 100 |
| C=CCOc1ccc(C2(c3ccc(OCC=C)cc3)C(=O)Nc3ccccc32)cc1 | > 10 | > 10 | > 10 | > 10 | > 10 | > 10 | > 10 | > 10 | > 10 | > 10 | > 10 | > 10 | > 10 | > 10 | > 10 | > 10 | > 10 | > 10 | > 10 | > 10 |
| COc1ccc2c(c1)CCC(CN1CCN(CCOC(c3ccc(F)cc3)c3ccc(F)cc3)CC1)C2O (centres undefined) | 20.1 | 32.5 | 29.7 | 24 | > 100 | 32.9 | 35.4 | 34.5 | 23.8 | 32.7 | 34.8 | 27 | 14.6 | 28.6 | 34 | 39 | 24.2 | 45 | 26.1 | 31.5 |
